Patent publication US20080089860A1, “Therapeutic compositions and methods useful in treating cancer” (priority 2006, published 2008)

How the values were obtained:
[1] = test system: Renca cells; test: Renca cell growth in culture, MTT assay; type: cell-based, murine; conditions: SSG 6.25-200 μg/ml, 6 days; listed as SSG
Text: Renca (Murphy, G. P., and W. J. Hrushesky. 1973. A murine renal cell carcinoma. J Natl Cancer Inst 50:1013), Jurkat (Gillis, S., and J. Watson. 1980. Biochemical and biological characterization of lymphocyte regulatory molecules. V. Identification of an interleukin 2-producing human leukemia T cell line. J Exp Med 152:1709) and WM9 (Forsberg, K., 1. Valyi-Nagy, C. H. Heldin, M. Herlyn, and B. Westermark. 1993. Platelet-derived growth factor (PDGF) in oncogenesis: development of a vascular connective tissue stroma in xenotransplanted human melanoma producing PDGF-BB. Proc Natl Acad Sci USA 90:393) cell lines were obtained from a colleague at the Cleveland Clinic Foundation (CCF) and cultured in RPMI 1640 medium supplemented with 10% fetal calf serum (FCS). […] SSG has been described previously (Yi, T., M. K. Pathak, D. J. Lindner, M. E. Ketterer, C. Farver, and E. C. Borden. 2002. Anticancer activity of sodium stibogluconate in synergy with IFNs. J Immunol 169:5978). For cell growth inhibition assays, cells were cultured in absence or presence of various amounts of SSG for 6 days with viable cells quantified by MTT assays as described elsewhere (Pathak, M. K., and T. Yi. 2001. Sodium stibogluconate is a potent inhibitor of protein tyrosine phosphatases and augments cytokine responses in hemopoietic cell lines. J Immunol 167:3391).

[2] = test system: Renca tumors; test: Renca tumors in Balb/c mice; type: in vivo; conditions: end of treatment
Method: Balb/c and athymic nude Balb/c mice (10 weeks old, female, Taconic Farms, Germantown, N.Y.) were inoculated (s.c.) at the flanks with Renca cells (10^6 cells/site). […] Student's t test was used for assessing the significance of tumor volume differences among differential treatment groups. Mouse viability (daily) and body weights (weekly) were also recorded during the study period. At the end of the study, Renca tumors and major internal organs (heart, kidney, liver, lung and spleen) were harvested for histology and immunohistochemistry analysis.

[3] = test system: WM9 transfectants (vector, PRL-1, PRL-1R86); test: Growth of WM9 transfectants, MTT assay; type: cell-based, human; conditions: 50 or 100 μg/ml
Method: NIH3T3 (Yi, et al., Blood 85, 87 (1995)), WM9 (Forsberg, et al., Proc. Nat. Acad. Sci. USA 90, 393 (1993)), DU145 (Mickey, et al., Cancer Res. 37, 4049 (1977)), LoVo (Drewinko, et al., Cancer Res. 36, 467 (1976)), HEY (Buick, et al., Cancer Res. 45, 3668 (1985)), U251 (Yoshida, et al., Cancer 50, 410 (1982)), A549 (Giard, et al., J. Natl. Cancer Inst. 51, 1417 (1973)) and SK-N-SH (Helson, et al., Cancer Res. 35, 2594 (1975)) cell lines have been described and were cultured in RPMI 1640 supplemented with 10% fetal calf serum (FCS). For measurement of sodium stibogluconate effects on cell growth in vitro, cells were cultured in the absence (−) or presence (+) of various amounts of sodium stibogluconate for 6 days with viable cells quantified by MTT assays (Mosmann, J. Immunol. Methods 65, 55 (1983)). Percentages of growth inhibition by sodium stibogluconate were calculated (.+−.x %).
The effects of sodium stibogluconate on intracellular PTPases were assessed using NIH3T3 or WM9 transfectants. […]
To further assess whether expression of the PRL-1R86 mutant affects sodium stibogluconate-induced growth inhibition, the transfectants were cultured in the absence or presence of sodium stibogluconate for 6 days with viable cells determined by MTT assays. […]

[4] = test system: Baf3 cells; test: Baf3 cell proliferation assay; type: cell-based, murine
Method: The murine hematopoietic cell line Baf3 was maintained in RPMI 1640 medium supplemented with 10% fetal calf serum (FCS) and murine IL-3 (20 units/ml) as described previously in Damen et al., J. Biol. Chem. 270, 23402 (1995). Human myeloid cell line TF-1 was maintained in RPMI 1640 supplemented with 10% FCS and 40 ng/ml of recombinant human GM-CSF as described previously in Thomassen et al., Clin. Immunol. 95, 85 (2000). For cell proliferation assays, cells were washed in 10% FCS medium twice, resuspended in 10% FCS medium, incubated at 37° C. for 16 hours, and then cultured at 37° C. in 10% FCS medium containing various amounts of cytokines, sodium stibogluconate, or potassium antimonyl tartrate for 3-6 days as indicated. The cell numbers in proliferation assays were determined by an MTT assay or by microscopic cell counting as indicated.

[5] = test system: DU145R cells; test: DU145R cell growth, MTT assay; type: cell-based, human; conditions: day 6 culture
Method: DU145 cells were cultured in the presence of sodium stibogluconate (100 µg/ml) in 48 well plates for 3 weeks. Cells from a well containing a single colony were transferred to flasks, cultured in sodium stibogluconate-free medium for 3 weeks and used as DU145R cells for further characterization. Growth of DU145R cells in the absence or presence of sodium stibogluconate in day 6 culture was determined by MTT assays. cDNAs of the coding region of PRLs were derived by RT-PCR from DU145 and DU145R cells and sequenced using primers described below.

Compound: O.O.O.O.O.O.O.O.O.O=C([O-])[C@@H]1[O][Sb]2([O-])([O][Sb]34([OH])[O][C@H]([C@H](O)CO)[C@H]([O]3)[C@H](C(=O)[O-])[O]4)[O][C@H]([C@H](O)CO)[C@@H]1[O]2.[Na+].[Na+].[Na+] [sodium stibogluconate]
- Renca cell growth in culture [1]: failed to inhibit Renca cell proliferation in culture
- tolerability of treatment [2]: tolerated well
- growth inhibition of R86 cells [3]: only modest growth inhibition
- IL-3-induced Baf3 growth ([4]; 1,000 μg/ml): suppressed
- cell proliferation and viability in the absence of IL-3 ([4]; day 3 culture): failed to support cell proliferation or maintain cell viability
- growth of DU145R clone in comparison to parental DU145 [5]: growth resistance
